# Data reported in patent publication US20260251642A1, “MOLECULAR TENSION SENSOR WITH NUCLEIC ACIDS AND HUH-TAGS” (REGENTS OF THE UNIVERSITY OF MINNESOTA, priority 2022, published 2026).
# Several values for one entry are separate records, joined by “and”; a condition that tells them apart may be missing. Identical values can stand only once.
# Assays:
# U251 cells = experiment: RAD-TGT rupture and delivery, flow cytometry readout, U251 cells; assay type: cell-based, human; conditions: versus DMSO
# Description: (§1) RAD-TGT Synthesis: TGTs were designed using previously characterized DNA sequences with a 5′ extension to allow for HUH binding. The following oligonucleotides were purchased from Integrated DNA Technologies. To prepare TGTs, anchor and ligand strands were mixed in a 1.1:1 ratio and then annealed in a 1× annealing buffer by heating at 98° C. for five minutes followed by cooling at room temperature for 1 hour. Excess bottom strand was used to mitigate any single stranded fluorescent top strand which may be internalized resulting in false positives. RAD-TGTs were then generated by reacting HUH-ligand of interest with the annealed duplex in a 2:1 ratio. […]
# (§2) RAD-TGT Experimental Setup: Cells of interest were trypsinized for five minutes and transferred to Opti-MEM Reduced Serum Media. Cells were then counted using an automated cell counter. […] Cells were removed from wells and analyzed with a BD ACCURI C6 Plus Personal Flow Cytometer without further washing.
# (§3) Statistical Analysis: In general, each experiment was performed on at least three separate days with 1-3 separated wells per day. […] The fluorescence data were concatenated to produce the dot plots. The medians of the normalized data for each biological replicate were used to overlay on the dot plot, and statistical significance was calculated using unpaired ANOVA as previously described.
# CHO-K1 cells = experiment: RAD-TGT rupture and delivery, flow cytometry readout, CHO-K1 cells; assay type: cell-based; conditions: versus DMSO
# Description: as §1, §2, §3
# integrin receptors = conditions: cited from earlier work
# U251 and CHO-K1 cells = experiment: Soluble RAD-TGT (echistatin) titration on U251 and CHO-K1 cells; assay type: cell-based
# Description: FIG. 15. Soluble RAD-TGT titration highlights differences in integrin composition between cell lines. Soluble RAD-TGTs composed of the echistatin conjugated to fluorescently labeled ligand strand annealed to the non-anchor strand was added into the wells at varying concentrations ranging from […]. The total picomolar (pmol) range of oligo was from […]. Thus, the standard RAD-TGT experiment in the main text contained […] oligo assuming all oligo properly adhered, thus this is representative of experimental conditions. From this it was concluded that U251 cells internalize the soluble RAD-TGT at a greater rate than the CHO-K1 cells, […]
# integrins on U251 cells [1] = biological target: integrins on U251 cells
# integrins on U251 cells [2] = experiment: cell-based or functional assay
compound,measurement,setting,value
"Cc1ccc2c(c1)C(=O)[C@]1(O)CCN(c3ccc(N)cc3)C1=N2 [Para-amino-blebbistatin, reference compound]",decrease in fluorescence upon treatment,"U251 cells; U251 on WDV-Echi RAD-TGTs, 50 μM, 30 minutes pre-incubation",~ 30%
same,"effect on median fluorescence, FN ligand",U251 cells; U251 on WDV-FN CY5-labeled RAD-TGTs,reduces median fluorescence
same,decrease in fluorescence upon treatment,"CHO-K1 cells; CHO-K1 on WDV-Echi RAD-TGTs, 50 μM, 30 minutes pre-incubation",~ 30%
same,"effect on median fluorescence, FN ligand",CHO-K1 cells; CHO-K1 on WDV-FN CY5-labeled RAD-TGTs,reduces median fluorescence
Echistatin,affinity for a broad range of integrin receptors,integrin receptors,sub-nanomolar
same,difference in bound echistatin between U251 and CHO-K1 cells,U251 and CHO-K1 cells,three-to-four-fold
WDV-echistatin integrin ligand (echistatin recombinantly expressed as a fusion protein with the HUH- (from UniProt P17347 131-179),"fold difference in bound echistatin, U251 against CHO-K1 cells",integrins on U251 cells [1],3 fold and 4 fold
same,"increase in median fluorescence, 12 pN RAD-TGT, U251 cells, flow cytometry",integrins on U251 cells [2],12 fold
same,"increase in median fluorescence, 54 pN RAD-TGT, U251 cells, flow cytometry",integrins on U251 cells [2],7 fold
